Here are results for one molecule from article PMC7575536, “Synthesis of an acyl-acyl carrier protein synthetase inhibitor to study fatty acid recycling” (Scientific Reports, 2020).

Structures can show the parent of a compound that is named as a salt.

This assay addresses T1, VhAasS (Vibrio harveyi, UniProt Q00IB3).
T1 construct: gene aasS; His6-tagged, expressed in E. coli BL21[DE3], Ni-NTA purified; tag removal not mentioned
T1 sequence (Q00IB3 1-533): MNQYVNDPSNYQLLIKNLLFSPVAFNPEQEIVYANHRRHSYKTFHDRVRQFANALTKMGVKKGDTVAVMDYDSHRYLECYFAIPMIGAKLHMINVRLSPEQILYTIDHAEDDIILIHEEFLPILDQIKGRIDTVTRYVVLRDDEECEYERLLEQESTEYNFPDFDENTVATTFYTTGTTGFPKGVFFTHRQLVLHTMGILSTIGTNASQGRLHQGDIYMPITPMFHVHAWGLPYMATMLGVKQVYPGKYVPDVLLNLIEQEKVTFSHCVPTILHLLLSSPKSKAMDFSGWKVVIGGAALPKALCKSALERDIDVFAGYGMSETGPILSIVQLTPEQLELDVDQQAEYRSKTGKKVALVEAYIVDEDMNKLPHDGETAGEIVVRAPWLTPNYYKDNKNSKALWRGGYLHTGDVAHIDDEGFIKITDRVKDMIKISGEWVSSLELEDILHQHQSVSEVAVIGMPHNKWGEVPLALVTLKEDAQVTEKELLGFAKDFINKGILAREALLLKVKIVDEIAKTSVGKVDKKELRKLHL
The assay can be described thus: urea-PAGE of acyl-ACP loading, ImageJ densitometry. The following applies: decanoic acid 1 mM, ATP 10 mM, MgCl2 12.5 mM, TCEP 2.5 mM; holo-EcACP or holo-VcACP 30 µM; enzyme 0.5 µM; pH 7.5, 37 °C, 24 h. The assay is classed as biochemical.

`CCCCCCCCCC(=O)NS(=O)(=O)OC[C@H]1O[C@@H](n2cnc3c(N)ncnc32)[C@H](O)[C@@H]1O` [compound 7, 5′-O-(N-decanylsulfamoyl)adenosine mono sodium salt]: the “% inhibition at 1 mM” value is on record as “In the presence of C10-AMS, VhAasS is completely inhibited from loading decanoic acid”.
